Consider six compounds from patent US20240270809A1, “ORAL GLP RECEPTOR AGONISTS” (priority 2020, published 2024).

Data set [1] addresses T1, human GLP2 receptor (Homo sapiens, UniProt O95838).
T1 construct: expressed in transfected cells; host or cells: HEK cells, BacMam virus transduction
T1 sequence (O95838 1-553): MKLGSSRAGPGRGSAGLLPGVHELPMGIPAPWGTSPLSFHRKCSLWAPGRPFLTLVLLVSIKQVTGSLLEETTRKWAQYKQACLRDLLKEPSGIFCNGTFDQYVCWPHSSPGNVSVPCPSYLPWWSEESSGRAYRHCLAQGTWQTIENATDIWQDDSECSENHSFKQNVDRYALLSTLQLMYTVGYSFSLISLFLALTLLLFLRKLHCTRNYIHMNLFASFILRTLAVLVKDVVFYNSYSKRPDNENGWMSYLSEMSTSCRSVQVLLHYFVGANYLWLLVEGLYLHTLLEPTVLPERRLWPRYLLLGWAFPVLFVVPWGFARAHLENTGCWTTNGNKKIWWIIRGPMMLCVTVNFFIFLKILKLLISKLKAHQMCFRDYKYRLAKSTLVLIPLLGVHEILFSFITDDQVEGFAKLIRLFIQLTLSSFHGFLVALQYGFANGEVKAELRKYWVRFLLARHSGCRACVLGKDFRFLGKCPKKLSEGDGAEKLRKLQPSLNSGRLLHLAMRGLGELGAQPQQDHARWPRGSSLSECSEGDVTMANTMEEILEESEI
The experiment in a line: cAMP accumulation assay, functional agonism of human GLP2 receptor. Type of data set: cell-based. The note with it: HEK cells infected with human GLP2 receptor BacMam virus, HTRF cAMP; for Emax: HEK293, read-out: Human GLP-2R agonist cAMP Emax; for EC50: read-out: Human GLP-2R agonist cAMP pEC50 (converted). The procedure, abridged: (§1)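 Steps: infect HEK cells with human GLP1 or GLP2 receptor BacMam for 24 hours; freeze; resuspend in HBSS with 0.5 mM IBMX; incubate with agonist 45 min at 37° C; lyse with HTRF detection reagents and read cAMP.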
Background: cAMP levels reflect the balance of adenylyl cyclase and phosphodiesterase activity.

Data set [2] has as its target T2, human GLP1 receptor (Homo sapiens, UniProt P43220).
T2 construct: expressed in transfected cells; host or cells: HEK cells, BacMam virus transduction
The experiment in a line: cAMP accumulation assay, functional agonism of human GLP1 receptor. Type of data set: cell-based. The following applies: HEK cells infected with human GLP1 receptor BacMam virus, HTRF cAMP; for Emax: HEK293, read-out: Human GLP-1R agonist cAMP Emax; for EC50: read-out: Human GLP-1R agonist cAMP pEC50 (converted). The procedure, abridged:
as §1

A short description of data set [3]: Stability of peptides in Fasted-State Simulated Intestinal Fluid (FaSSIF). Type of data set: in vitro ADME. The following applies: FaSSIF with 10 mg/ml pancreatin, 37° C.; for remaining at 0.25 h: FaSSIF pH 6.5 with 10 mg/ml pancreatin, t = 15 mins.

Positions of bridges follow the written chain, without caps; N, C: chain ends. Non-standard residues stand in square brackets, D forms with d. Residues, ends and D or L forms follow the SMILES beside them. *: point of attachment. Malonyl(2,2-Me2,histaminyl) = CC(C)(C(=O)NCCc1cnc[nH]1)C(=O)*; Ala(1H-tetrazol-5-yl) = N[C@@H](Cc1nnn[nH]1)C(=O)O; αMeL = CC(C)C[C@](C)(N)C(=O)O; Nle = CCCC[C@H](N)C(=O)O; Aib = CC(C)(N)C(=O)O

T2 sequence (P43220 24-463): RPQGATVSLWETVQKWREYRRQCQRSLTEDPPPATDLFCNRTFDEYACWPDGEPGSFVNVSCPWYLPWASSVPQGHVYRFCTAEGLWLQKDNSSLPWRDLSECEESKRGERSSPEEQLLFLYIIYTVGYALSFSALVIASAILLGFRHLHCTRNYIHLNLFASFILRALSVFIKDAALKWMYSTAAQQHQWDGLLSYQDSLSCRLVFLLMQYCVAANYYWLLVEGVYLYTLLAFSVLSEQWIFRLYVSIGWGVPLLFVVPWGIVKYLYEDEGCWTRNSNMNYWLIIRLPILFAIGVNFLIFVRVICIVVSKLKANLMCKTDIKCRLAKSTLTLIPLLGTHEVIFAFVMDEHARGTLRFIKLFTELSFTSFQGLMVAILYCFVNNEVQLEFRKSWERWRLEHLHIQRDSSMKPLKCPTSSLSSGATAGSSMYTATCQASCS

Turning to `CCCC[C@H](NC(=O)[C@H](CCC(=O)O)NC(=O)[C@@H]1CC(=O)NCCCC[C@H](NC(=O)[C@H](CC(=O)O)NC(=O)C(C)(C)NC(=O)[C@@H](N)Cc2c[nH]cn2)C(=O)N[C@@H](CO)C(=O)N[C@@H](Cc2ccccc2)C(=O)N[C@@H](CO)C(=O)N1)C(=O)N[C@H](Cc1ccccc1)C(=O)N[C@H](C(=O)N[C@@](C)(CC(C)C)C(=O)N[C@@H](CC(C)C)C(=O)N[C@@H](CC(=O)O)C(=O)N[C@H]1CCC(=O)NCCCC[C@@H](C(=O)N[C@@H](CC(=O)O)C(=O)N[C@@H](Cc2ccccc2)C(=O)N[C@H](C(=O)N[C@H]2CCC(=O)NCCCC[C@@H](C(=O)N[C@H](C(=O)N[C@@H](CCCCN)C(N)=O)[C@@H](C)O)NC(=O)[C@H]([C@@H](C)CC)NC(=O)[C@H](CC(C)C)NC(=O)[C@H](Cc3c[nH]c4ccccc34)NC2=O)[C@@H](C)CC)NC(=O)[C@H](C)NC(=O)[C@H](C)NC(=O)[C@H](CCCCN)NC1=O)[C@@H](C)O` [Example 21] (H-H[Aib]DKSFSDE[Nle][dF]T[αMeL]LDEKAAKDFIEWLIKTK-NH2; lactam 4-8, 16-20, 24-28; N-terminus and C-terminus assumed), the figures for the Emax in data set [1] and in data set [2] were 104% and 96.6%, respectively. Further, in data set [3] (t=30 mins, pH 6.5, 10 mg/ml pancreatin), the fraction remaining at 0.5 h is 51.7%.

For `CCCC[C@H](NC(=O)[C@H](CCC(=O)O)NC(=O)[C@H](CC(=O)O)NC(=O)[C@H](CO)NC(=O)[C@H](Cc1ccccc1)NC(=O)[C@H](CO)NC(=O)CNC(=O)[C@H](CC(=O)O)NC(=O)C(C)(C)NC(=O)[C@@H](N)Cc1c[nH]cn1)C(=O)N[C@H]1CC(=O)NCCCC[C@@H](C(=O)N[C@@H](CC(C)C)C(=O)N[C@@H](CCCCN)C(=O)N[C@@H](C)C(=O)N[C@@H](C)C(=O)N[C@@H](CCCCN)C(=O)N[C@@H](CC(=O)O)C(=O)N[C@@H](Cc2ccccc2)C(=O)N[C@H](C(=O)N[C@@H](CC(N)=O)C(=O)N[C@@H](Cc2c[nH]c3ccccc23)C(=O)N[C@@H](CC(C)C)C(=O)N[C@H](C(=O)N[C@@H](CCC(N)=O)C(=O)N[C@H](C(=O)N[C@@H](CCCCN)C(=O)N[C@H](C(=O)N[C@H](C(=O)N[C@@H](CC(=O)O)C(N)=O)[C@@H](C)O)[C@@H](C)CC)[C@@H](C)O)[C@@H](C)CC)[C@@H](C)CC)NC(=O)[C@H](CC(C)C)NC(=O)[C@H]([C@@H](C)CC)NC(=O)[C@H]([C@@H](C)O)NC1=O` [Example 86] (H-H[Aib]DGSFSDE[Nle]DTILKLKAAKDFINWLIQTKITD-NH2; lactam 11-15; C-terminus assumed), the Emax is 103% in data set [1] and 93.5% in data set [2]. The results for the EC50 in data set [1] and in data set [2] were 0.0251 nM and 25.1 nM, respectively. For the same compound, in data set [3], the amount remaining at 0.25 h was 5.1%.

As to `CCCC[C@H](NC(=O)[C@H](CCC(=O)O)NC(=O)[C@H](CC(=O)O)NC(=O)[C@H](CO)NC(=O)[C@H](Cc1ccccc1)NC(=O)[C@H](CO)NC(=O)CNC(=O)[C@H](CC(=O)O)NC(=O)C(C)(C)NC(=O)[C@@H](N)Cc1c[nH]cn1)C(=O)N[C@H](Cc1ccccc1)C(=O)N[C@H](C(=O)N[C@H](C(=O)N[C@@H](CC(C)C)C(=O)N[C@@H](CC(=O)O)C(=O)N[C@@H](CC(C)C)C(=O)N[C@@H](CCCCN)C(=O)N[C@@H](C)C(=O)N[C@@H](C)C(=O)N[C@@H](CCCCN)C(=O)N[C@@H](CC(=O)O)C(=O)N[C@@H](Cc1ccccc1)C(=O)N[C@H](C(=O)N[C@@H](CC(N)=O)C(=O)N[C@@H](Cc1c[nH]c2ccccc12)C(=O)N[C@@H](CC(C)C)C(=O)N[C@H](C(=O)N[C@@H](CCC(N)=O)C(=O)N[C@H](C(=O)N[C@H]1CCC(=O)NCCCC[C@@H](C(N)=O)NC(=O)[C@H]([C@@H](C)O)NC(=O)[C@H]([C@@H](C)CC)NC1=O)[C@@H](C)O)[C@@H](C)CC)[C@@H](C)CC)[C@@H](C)CC)[C@@H](C)O` [Example 90] (H-H[Aib]DGSFSDE[Nle][dF]TILDLKAAKDFINWLIQTEITK-NH2; lactam 30-33 (inferred); C-terminus assumed), in data set [1], the maximal response (Emax) stood at 102% and the EC50 is 0.0251 nM. For the same compound, in data set [2], the Emax amounted to 100% and the EC50 was 7.94 nM. Besides, the fraction remaining at 0.25 h in data set [3] was 22%.

As to `CCCC[C@H](NC(=O)[C@H](CCC(=O)O)NC(=O)[C@H](CC(=O)O)NC(=O)[C@H](CO)NC(=O)[C@H](Cc1ccccc1)NC(=O)[C@H](CO)NC(=O)CNC(=O)[C@H](Cc1nn[nH]n1)NC(=O)C(C)(C)C(=O)NCCc1c[nH]cn1)C(=O)N[C@H](Cc1ccccc1)C(=O)N[C@H]1CCCCNC(=O)C[C@@H](C(=O)N[C@@H](CCCCN)C(=O)N[C@@H](C)C(=O)N[C@@H](C)C(=O)N[C@@H](CCCCN)C(=O)N[C@@H](CC(=O)O)C(=O)N[C@@H](Cc2ccccc2)C(=O)N[C@H](C(=O)N[C@@H](CC(N)=O)C(=O)N[C@@H](Cc2c[nH]c3ccccc23)C(=O)N[C@@H](CC(C)C)C(=O)N[C@H](C(=O)N[C@@H](CCC(N)=O)C(=O)N[C@H](C(=O)N[C@@H](CCCCN)C(=O)N[C@H](C(=O)N[C@H](C(=O)N[C@@H](Cc2ccccc2)C(N)=O)[C@@H](C)O)[C@@H](C)CC)[C@@H](C)O)[C@@H](C)CC)[C@@H](C)CC)NC(=O)[C@H](CC(=O)O)NC(=O)[C@H](CC(C)C)NC(=O)[C@H]([C@@H](C)CC)NC1=O` [Example 91] ({Malonyl(2,2-Me2,histaminyl)}-[Ala(1H-tetrazol-5-yl)]GSFSDE[Nle][dF]KILDDKAAKDFINWLIQTKITF-NH2; lactam 10-14), in data set [1], the Emax was found to be 104% and the EC50 was 0.01 nM. Further, in data set [2], the Emax came to 98.8% and the EC50 is 0.251 nM. Besides, the amount remaining at 0.25 h in data set [3] is 8.8%.

Turning to `CCCC[C@H](NC(=O)[C@H](CCC(=O)O)NC(=O)[C@H](CC(=O)O)NC(=O)[C@H](CO)NC(=O)[C@H](Cc1ccccc1)NC(=O)[C@H](CO)NC(=O)CNC(=O)[C@H](Cc1nn[nH]n1)NC(=O)C(C)(C)C(=O)NCCc1c[nH]cn1)C(=O)N[C@H](Cc1ccccc1)C(=O)N[C@H]1CCCCNC(=O)C[C@@H](C(=O)N[C@@H](CCCCN)C(=O)N[C@@H](C)C(=O)N[C@@H](C)C(=O)N[C@@H](CCCCN)C(=O)N[C@@H](CC(=O)O)C(=O)N[C@@H](Cc2ccccc2)C(=O)N[C@H](C(=O)N[C@@H](CC(N)=O)C(=O)N[C@@H](Cc2c[nH]c3ccccc23)C(=O)N[C@@H](CC(C)C)C(=O)N[C@H](C(=O)N[C@@H](CCC(N)=O)C(=O)N[C@H](C(=O)N[C@H]2CCC(=O)NCCCC[C@@H](C(N)=O)NC(=O)[C@H]([C@@H](C)O)NC(=O)[C@H]([C@@H](C)CC)NC2=O)[C@@H](C)O)[C@@H](C)CC)[C@@H](C)CC)NC(=O)[C@H](CC(=O)O)NC(=O)[C@H](CC(C)C)NC(=O)[C@H]([C@@H](C)CC)NC1=O` [Example 105] ({Malonyl(2,2-Me2,histaminyl)}-[Ala(1H-tetrazol-5-yl)]GSFSDE[Nle][dF]KILDDKAAKDFINWLIQTEITK-NH2; lactam 10-14, 28-31 (inferred); C-terminus assumed), the Emax is 101% in data set [1] and 97.4% in data set [2]. Moreover, the EC50 in data set [1] and in data set [2] was 0.0251 nM throughout. Besides, the share remaining at 0.25 h in data set [3] is 1.6%.

For the compound `CCCC[C@H](NC(=O)[C@H](CCC(=O)O)NC(=O)[C@H](CC(=O)O)NC(=O)[C@H](CO)NC(=O)[C@H](Cc1ccccc1)NC(=O)[C@H](CO)NC(=O)CNC(=O)[C@H](Cc1nn[nH]n1)NC(=O)C(C)(C)C(=O)NCCc1c[nH]cn1)C(=O)N[C@H](Cc1ccccc1)C(=O)N[C@H](C(=O)N[C@H](C(=O)N[C@@H](CC(C)C)C(=O)N[C@@H](CC(=O)O)C(=O)N[C@H]1CC(=O)NCCCC[C@@H](C(=O)N[C@@H](CC(=O)O)C(=O)N[C@@H](Cc2ccccc2)C(=O)N[C@H](C(=O)N[C@@H](CC(N)=O)C(=O)N[C@@H](Cc2c[nH]c3ccccc23)C(=O)N[C@@H](CC(C)C)C(=O)N[C@H](C(=O)N[C@@H](CCC(N)=O)C(=O)N[C@H](C(=O)N[C@H]2CCC(=O)NCCCC[C@@H](C(N)=O)NC(=O)[C@H]([C@@H](C)O)NC(=O)[C@H]([C@@H](C)CC)NC2=O)[C@@H](C)O)[C@@H](C)CC)[C@@H](C)CC)NC(=O)[C@H](C)NC(=O)[C@H](C)NC(=O)[C@H](CCCCN)NC1=O)[C@@H](C)CC)[C@@H](C)O` [Example 106] ({Malonyl(2,2-Me2,histaminyl)}-[Ala(1H-tetrazol-5-yl)]GSFSDE[Nle][dF]TILDDKAAKDFINWLIQTEITK-NH2; lactam 14-18, 28-31; C-terminus assumed), in data set [1], the Emax was found to be 102% and the EC50 was 0.501 nM. Besides, in data set [2], the maximum response (Emax) was determined as 97.2% and the EC50 is 0.316 nM. In data set [3], the share remaining at 0.25 h was 9.6%.

By Emax is commonly meant the maximal effect, on the per cent scale that the assay sets. One may read the share remaining as what is left of the initial amount, in per cent.
